The source of these data is patent publication US10111932B2, “Coagonists of glucagon-like peptide 1 receptor and neuropeptide Y2 receptor” (Syracuse University, priority 2015, dated 2018).

Entries after “also recorded” stand apart in the source; their conditions may differ. Ends that are not written are not given here.

Type in all cases: cell-based
In one test the target is T1, GLP-1R (Homo sapiens, UniProt P43220).
T1 construct: expressed in transfected cells; host or cells: HEK293
As to the kind of experiment: GLP-1R agonism, AKAR3 FRET assay in HEK-GLP-1R cells. The note with it: for GLP-1R agonism screen: 300 nM, HEK-GLP-1R cells (FIG. 10). The method, then: (§1) The RLB series peptides were tested for function at receptors corresponding to the glucagon super family of receptors and NPY receptors. These receptors were transfected into either HEK293 cells or CHO cells. HEK 293 cells stably transfected with either GLP-1R or GIPR followed by an infection of adenovirus incorporating AKAR3 to indirectly follow cAMP production. CHO cells were transfected with NPY2R and a promiscuous g protein using FURA2 to follow calcium release.

For the next test, the target named is T2, NPY2R (Homo sapiens, UniProt P49146).
T2 construct: expressed in transfected cells; host or cells: CHO
T2 sequence (P49146 1-381): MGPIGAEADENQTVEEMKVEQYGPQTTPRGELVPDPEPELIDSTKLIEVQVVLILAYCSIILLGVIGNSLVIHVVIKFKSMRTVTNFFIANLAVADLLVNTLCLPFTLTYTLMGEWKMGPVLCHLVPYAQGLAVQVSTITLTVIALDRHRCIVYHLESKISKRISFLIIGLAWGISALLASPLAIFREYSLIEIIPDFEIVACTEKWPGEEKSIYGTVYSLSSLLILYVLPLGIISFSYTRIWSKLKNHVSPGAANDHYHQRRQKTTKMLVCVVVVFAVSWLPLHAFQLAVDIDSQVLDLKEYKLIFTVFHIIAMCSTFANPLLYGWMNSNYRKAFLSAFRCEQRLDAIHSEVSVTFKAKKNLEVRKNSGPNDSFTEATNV
As to the kind of experiment: NPY2R agonism, FURA2 calcium release in transfected CHO cells. Here is the method:
as §1

The target of the next test is T3, GIPR (Homo sapiens, UniProt P48546).
T3 construct: expressed in transfected cells; host or cells: HEK293
T3 sequence (P48546 22-466): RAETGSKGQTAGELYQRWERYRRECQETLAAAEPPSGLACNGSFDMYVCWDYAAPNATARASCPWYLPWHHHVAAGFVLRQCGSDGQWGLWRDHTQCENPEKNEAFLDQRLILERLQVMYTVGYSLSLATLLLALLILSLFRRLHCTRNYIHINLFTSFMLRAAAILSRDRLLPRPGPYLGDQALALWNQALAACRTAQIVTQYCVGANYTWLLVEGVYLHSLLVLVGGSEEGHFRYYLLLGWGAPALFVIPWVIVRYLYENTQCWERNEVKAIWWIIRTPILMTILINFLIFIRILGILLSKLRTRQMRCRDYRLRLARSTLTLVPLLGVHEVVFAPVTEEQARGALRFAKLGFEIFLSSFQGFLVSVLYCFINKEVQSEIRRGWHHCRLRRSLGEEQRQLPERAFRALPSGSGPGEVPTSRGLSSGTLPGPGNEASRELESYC
As to the kind of experiment: GIPR agonism, AKAR3 FRET in HEK293 cells stably transfected with GIPR. The note with it: tested up to 1 μM. The method, then: as §1
Receptors in the glucagon receptor superfamily were tested based on the similarities of native peptide agonists.

T1 sequence (P43220 24-463, species assumed): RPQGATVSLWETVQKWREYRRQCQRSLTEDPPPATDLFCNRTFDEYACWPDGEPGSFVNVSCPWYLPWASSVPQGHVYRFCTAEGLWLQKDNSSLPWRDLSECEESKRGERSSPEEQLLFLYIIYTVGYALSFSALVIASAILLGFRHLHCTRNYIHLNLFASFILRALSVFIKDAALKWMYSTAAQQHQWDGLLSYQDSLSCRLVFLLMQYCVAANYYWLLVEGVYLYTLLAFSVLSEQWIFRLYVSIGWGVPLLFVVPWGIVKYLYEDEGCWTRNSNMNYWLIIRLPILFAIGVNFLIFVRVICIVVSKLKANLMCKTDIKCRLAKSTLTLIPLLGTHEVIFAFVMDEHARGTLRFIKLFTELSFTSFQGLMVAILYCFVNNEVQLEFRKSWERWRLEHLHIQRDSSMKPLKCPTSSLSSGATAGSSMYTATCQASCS

A word on the EC50: it is the concentration giving half of the maximal effect. Regarding `CC[C@H](C)[C@H](NC(=O)[C@H](Cc1ccccc1)NC(=O)[C@H](CC(C)C)NC(=O)[C@H](CCCNC(=N)N)NC(=O)[C@@H](NC(=O)[C@H](C)NC(=O)[C@H](CCC(=O)O)NC(=O)[C@H](CCC(=O)O)NC(=O)[C@H](CCC(=O)O)NC(=O)[C@H](CCSC)NC(=O)[C@H](CCC(N)=O)NC(=O)[C@H](CCCCN)NC(=O)[C@H](CO)NC(=O)[C@H](CC(C)C)NC(=O)[C@H](CC(=O)O)NC(=O)[C@H](CO)NC(=O)[C@@H](NC(=O)[C@H](Cc1ccccc1)NC(=O)[C@@H](NC(=O)CNC(=O)[C@H](CCC(=O)O)NC(=O)CNC(=O)[C@@H](N)Cc1c[nH]cn1)[C@@H](C)O)[C@@H](C)O)C(C)C)C(=O)N[C@@H](CCC(=O)O)C(=O)N[C@@H](Cc1c[nH]c2ccccc12)C(=O)N[C@@H](CC(C)C)C(=O)N[C@@H](CCCNC(=N)N)C(=O)N[C@@H](Cc1c[nH]cn1)C(=O)N[C@@H](Cc1ccc(O)cc1)C(=O)N[C@@H](CC(C)C)C(=O)N[C@@H](CC(N)=O)C(=O)N[C@@H](CC(C)C)C(=O)N[C@H](C(=O)N[C@H](C(=O)N[C@@H](CCCNC(=N)N)C(=O)N[C@@H](CCC(N)=O)C(=O)N[C@@H](CCCNC(=N)N)C(=O)N[C@@H](Cc1ccc(O)cc1)C(N)=O)[C@@H](C)O)C(C)C` [Peptide 12], the GLP-1R agonism screen entry at GLP-1R is recorded as “have agonism”. The results for the concentration giving a half-maximal response (EC50) on GLP-1R (dose response) and on NPY2R (dose response) were 0.253 ± 0.05 nM and 59 nM, respectively. The GLP-1R agonism screening result on GLP-1R (peptides at 100 nM (FIG. 3)) is reported as “effective agonists”. Moreover, at GLP-1R (relative to the other dual agonists), the “Potency at the GLP-1R, comparative statement” value was “significant less potent”. Also, the NPY2R agonism screen entry on NPY2R (300 nM (FIG. 12)) was “full function”. Also, at GIPR, the GIPR agonism entry was “no agonsim; also recorded: no function”.
On to “IKPEAPREDASPEEENQAYKEFIAYLNLVTRQRY-NH2 [Peptide 13]”, for which the GLP-1R agonism screen entry on GLP-1R is given as “no function”.
